Source: patent US7064128B2, “Preferentially substituted calcium channel blockers” (NeuroMed Technologies, Inc., priority 1998, dated 2006)
Read-outs that look alike come from different tables or passages of the source.

Tests used:
Assay type in all cases: cell-based
[1] = target: T1, N-type calcium channels (α1B+α2δ+β1b cDNA subunits) (Rattus norvegicus, UniProt Q02294); test: Whole cell patch clamp, tonic and frequency dependent block, N-type channels in HEK 293 (Example 5); conditions: for % Block (100 nM) 0.03 Hz: 0.03 Hz (tonic block); for % Block (100 nM) 0.2 Hz: 0.2 Hz (frequency dependent block)
T1 construct: expressed in transfected cells
T1 sequence (Q02294 whole entry): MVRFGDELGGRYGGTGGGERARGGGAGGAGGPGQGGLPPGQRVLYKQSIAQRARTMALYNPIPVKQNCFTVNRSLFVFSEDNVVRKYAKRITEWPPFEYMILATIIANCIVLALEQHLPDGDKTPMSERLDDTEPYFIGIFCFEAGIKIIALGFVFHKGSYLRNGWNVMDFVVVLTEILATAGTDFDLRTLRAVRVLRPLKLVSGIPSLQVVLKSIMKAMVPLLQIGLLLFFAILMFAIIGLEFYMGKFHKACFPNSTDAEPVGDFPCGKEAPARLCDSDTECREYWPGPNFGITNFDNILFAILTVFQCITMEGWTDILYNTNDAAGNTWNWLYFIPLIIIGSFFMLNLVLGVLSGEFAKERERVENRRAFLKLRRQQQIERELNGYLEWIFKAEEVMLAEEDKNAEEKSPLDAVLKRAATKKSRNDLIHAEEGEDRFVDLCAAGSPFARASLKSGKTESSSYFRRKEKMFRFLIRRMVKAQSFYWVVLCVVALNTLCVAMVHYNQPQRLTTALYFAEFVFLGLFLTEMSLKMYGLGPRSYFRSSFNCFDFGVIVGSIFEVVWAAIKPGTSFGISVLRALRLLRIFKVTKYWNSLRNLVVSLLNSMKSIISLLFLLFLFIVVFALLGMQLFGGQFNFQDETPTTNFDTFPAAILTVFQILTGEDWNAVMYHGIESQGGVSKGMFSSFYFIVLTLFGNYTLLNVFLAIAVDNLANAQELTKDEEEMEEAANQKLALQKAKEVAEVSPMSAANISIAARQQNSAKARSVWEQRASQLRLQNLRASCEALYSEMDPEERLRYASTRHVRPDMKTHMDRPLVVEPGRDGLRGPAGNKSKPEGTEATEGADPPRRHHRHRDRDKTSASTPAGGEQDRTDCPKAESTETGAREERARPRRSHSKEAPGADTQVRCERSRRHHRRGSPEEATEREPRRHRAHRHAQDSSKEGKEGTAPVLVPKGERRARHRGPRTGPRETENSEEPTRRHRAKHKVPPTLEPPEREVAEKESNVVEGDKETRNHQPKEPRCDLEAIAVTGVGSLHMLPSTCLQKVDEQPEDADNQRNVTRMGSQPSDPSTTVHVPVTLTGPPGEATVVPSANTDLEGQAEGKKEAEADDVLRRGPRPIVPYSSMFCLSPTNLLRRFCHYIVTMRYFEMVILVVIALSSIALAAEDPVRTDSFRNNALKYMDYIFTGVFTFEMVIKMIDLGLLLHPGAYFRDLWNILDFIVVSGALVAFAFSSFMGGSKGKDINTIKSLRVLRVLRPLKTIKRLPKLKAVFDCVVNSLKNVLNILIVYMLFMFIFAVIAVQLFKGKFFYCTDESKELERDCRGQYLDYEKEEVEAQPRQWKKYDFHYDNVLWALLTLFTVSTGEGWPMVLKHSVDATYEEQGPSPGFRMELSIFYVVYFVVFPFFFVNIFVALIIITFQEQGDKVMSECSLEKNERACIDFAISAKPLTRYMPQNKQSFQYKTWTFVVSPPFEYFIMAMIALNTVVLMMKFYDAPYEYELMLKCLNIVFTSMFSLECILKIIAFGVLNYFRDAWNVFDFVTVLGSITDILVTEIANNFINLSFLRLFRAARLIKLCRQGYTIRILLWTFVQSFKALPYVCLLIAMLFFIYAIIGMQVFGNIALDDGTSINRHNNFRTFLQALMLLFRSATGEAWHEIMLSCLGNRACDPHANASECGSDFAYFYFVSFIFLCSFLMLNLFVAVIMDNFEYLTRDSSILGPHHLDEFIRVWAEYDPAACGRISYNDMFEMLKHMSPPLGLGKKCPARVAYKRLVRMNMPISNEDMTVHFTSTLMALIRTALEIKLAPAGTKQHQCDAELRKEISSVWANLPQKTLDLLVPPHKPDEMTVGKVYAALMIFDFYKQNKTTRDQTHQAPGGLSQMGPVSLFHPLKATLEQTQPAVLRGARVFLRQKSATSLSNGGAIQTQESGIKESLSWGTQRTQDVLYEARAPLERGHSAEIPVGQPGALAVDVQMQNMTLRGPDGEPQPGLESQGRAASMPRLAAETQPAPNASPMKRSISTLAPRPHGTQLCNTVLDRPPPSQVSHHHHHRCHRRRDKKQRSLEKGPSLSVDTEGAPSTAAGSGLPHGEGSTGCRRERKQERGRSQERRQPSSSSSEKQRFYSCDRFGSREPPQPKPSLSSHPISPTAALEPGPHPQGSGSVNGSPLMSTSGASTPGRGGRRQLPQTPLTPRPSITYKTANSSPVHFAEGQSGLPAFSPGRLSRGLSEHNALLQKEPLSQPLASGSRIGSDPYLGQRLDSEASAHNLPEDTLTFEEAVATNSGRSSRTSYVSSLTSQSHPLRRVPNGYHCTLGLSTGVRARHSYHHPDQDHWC
T1 sequence (P54290 25-944 partner limits assumed): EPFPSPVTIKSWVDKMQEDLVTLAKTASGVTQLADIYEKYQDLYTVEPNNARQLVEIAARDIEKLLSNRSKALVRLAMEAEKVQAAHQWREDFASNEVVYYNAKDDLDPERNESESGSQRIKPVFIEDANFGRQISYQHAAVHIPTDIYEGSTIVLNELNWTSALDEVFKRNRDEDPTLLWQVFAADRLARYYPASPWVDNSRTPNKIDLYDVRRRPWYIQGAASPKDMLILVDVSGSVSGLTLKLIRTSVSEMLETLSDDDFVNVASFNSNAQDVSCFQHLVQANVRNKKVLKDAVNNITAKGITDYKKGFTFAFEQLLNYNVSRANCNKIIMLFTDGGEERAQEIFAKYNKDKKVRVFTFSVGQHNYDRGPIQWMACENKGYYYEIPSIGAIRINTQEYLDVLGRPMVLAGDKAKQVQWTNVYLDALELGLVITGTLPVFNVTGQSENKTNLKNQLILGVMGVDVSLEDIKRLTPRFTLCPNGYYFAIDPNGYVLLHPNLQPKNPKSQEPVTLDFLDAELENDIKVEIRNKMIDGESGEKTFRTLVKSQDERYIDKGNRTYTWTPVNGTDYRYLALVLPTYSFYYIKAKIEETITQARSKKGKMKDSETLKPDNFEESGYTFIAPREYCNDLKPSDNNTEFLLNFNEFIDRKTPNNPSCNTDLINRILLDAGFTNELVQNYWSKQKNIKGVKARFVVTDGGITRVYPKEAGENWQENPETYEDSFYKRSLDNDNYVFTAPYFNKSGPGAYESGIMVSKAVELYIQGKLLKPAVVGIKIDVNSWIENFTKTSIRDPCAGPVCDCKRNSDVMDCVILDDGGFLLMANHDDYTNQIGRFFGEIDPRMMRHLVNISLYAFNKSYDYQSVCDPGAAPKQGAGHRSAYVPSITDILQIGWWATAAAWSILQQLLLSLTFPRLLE
T1 sequence (P54290 945-1091 partner limits assumed): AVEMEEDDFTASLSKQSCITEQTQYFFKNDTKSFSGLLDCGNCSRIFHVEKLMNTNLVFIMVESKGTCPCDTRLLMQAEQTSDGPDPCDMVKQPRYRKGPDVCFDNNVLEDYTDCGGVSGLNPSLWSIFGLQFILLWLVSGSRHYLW
T1 sequence (P54283 whole entry partner): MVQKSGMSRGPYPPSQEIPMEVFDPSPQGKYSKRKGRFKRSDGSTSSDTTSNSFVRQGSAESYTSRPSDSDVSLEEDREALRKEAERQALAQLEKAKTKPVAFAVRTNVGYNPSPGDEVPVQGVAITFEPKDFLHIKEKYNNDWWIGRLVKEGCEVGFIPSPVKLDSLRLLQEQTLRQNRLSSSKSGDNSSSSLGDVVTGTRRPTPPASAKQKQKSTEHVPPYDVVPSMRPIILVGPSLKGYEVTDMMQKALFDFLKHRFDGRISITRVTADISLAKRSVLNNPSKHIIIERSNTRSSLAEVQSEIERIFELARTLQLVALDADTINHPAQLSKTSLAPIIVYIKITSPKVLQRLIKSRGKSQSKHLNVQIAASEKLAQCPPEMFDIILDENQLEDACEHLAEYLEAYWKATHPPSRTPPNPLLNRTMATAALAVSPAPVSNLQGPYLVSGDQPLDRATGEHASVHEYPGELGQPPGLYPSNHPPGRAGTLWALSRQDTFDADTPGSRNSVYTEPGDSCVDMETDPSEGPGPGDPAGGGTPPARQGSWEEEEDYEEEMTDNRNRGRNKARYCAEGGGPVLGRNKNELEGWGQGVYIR
Description: (§1) N-type calcium channel blocking activity was assayed in human embryonic kidney cells, HEK 293, stably transfected with the rat brain N-type calcium channel subunits (α1B+α2δ+β1b cDNA subunits). Alternatively, N-type calcium channels (α1B+α2δ+β1b cDNA subunits), L-type channels (α1C+α2δ+β1b cDNA subunits) and P/Q-type channels (α1A+α2δ+β1b cDNA subunits) were transiently expressed in HEK 293 cells. Briefly, cells were cultured in Dulbecco's modified eagle medium (DMEM) supplemented with 10% fetal bovine serum, 200 U/ml penicillin and 0.2 mg/ml streptomycin at 37° C. with 5% CO2. At 85% confluency cells were split with 0.25% trypsin/1 mM EDTA and plated at 10% confluency on glass coverslips. At 12 hours the medium was replaced and the cells transiently transfected using a standard calcium phosphate protocol and the appropriate calcium channel cDNAs. Fresh DMEM was supplied and the cells transferred to 28° C./5% CO2. Cells were incubated for 1 to 2 days to whole cell recording.
(§2) Whole cell patch clamp experiments were performed using an Axopatch 200B amplifier (Axon Instruments, Burlingame, Calif.) linked to a personal computer equipped with pCLAMP software. The external and internal recording solutions contained, respectively, 5 mM BaCl2, 1 mM MgCl2, 10 mM HEPES, 40 mM TEACl, 10 mM glucose, 87.5 mM CsCl (pH 7.2) and 108 mM CsMS, 4 mM MgCl2, 9 mM EGTA, 9 mM HEPES (pH 7.2). Currents were typically elicited from a holding potential of −80 mV to +10 mV using Clampex software (Axon Instruments). Typically, currents were first elicited with low frequency stimulation (0.03 Hz) and allowed to stabilize prior to application of the compounds. The compounds were then applied during the low frequency pulse trains for two to three minutes to assess tonic block, and subsequently the pulse frequency was increased to 0.2 Hz to assess frequency dependent block. Data were analyzed using Clampfit (Axon Instruments) and SigmaPlot 4.0 (Jandel Scientific).

[2] = target: P/Q-type channels (α1A+α2δ+β1b cDNA subunits) (UniProt P54282); test: Whole cell patch clamp, tonic and frequency dependent block, P/Q-type channels in HEK 293 (Example 5)
Description: as §1, §2
(§3) Tables 2 and 3 show the results of similar experiments conducted with P/Q-type and L-type channels expressed in HEK 293 cells.

[3] = system: P/Q-type channels (α1A+α2δ+β1b cDNA subunits); test: as above; conditions: in general
Description: as §1, §2, §3

[4] = target: T2, L-type channels (α1C+α2δ+β1b cDNA subunits) (UniProt P22002); test: Whole cell patch clamp, tonic and frequency dependent block, L-type channels in HEK 293 (Example 5)
T2 construct: other: α1C (L-type), 100 nM, 0.03 Hz; other: α1C (L-type), 100 nM, 0.2 Hz; other: α1C (L-type), 0.03 Hz; other: α1C (L-type), 0.2 Hz
Description: as §1, §2, §3

[5] = system: L-type channels (α1C+α2δ+β1b cDNA subunits); test: as above; conditions: in general
Description: as §1, §2, §3

[6] = Table 4 summary, 0.2 Hz, N-type, unit not given in Table 4 (μM in Table 1), read-out: N (IC50 values)
[7] = α1B (N-type), 0.03 Hz, read-out: Estimated IC50 (μM) 0.03 Hz
[8] = α1B (N-type), 0.2 Hz, read-out: Estimated IC50 (μM) 0.2 Hz
[9] = Table 4 summary, 0.2 Hz, P/Q-type, unit not given in Table 4 (μM in Table 2), read-out: P/Q (IC50 values)
[10] = α1A (P/Q-type), 0.03 Hz, read-out: Estimated IC50 (μM) 0.03 Hz
[11] = α1A (P/Q-type), 0.2 Hz, read-out: Estimated IC50 (μM) 0.2 Hz
[12] = Table 4 summary, 0.2 Hz, L-type, unit not given in Table 4 (μM in Table 3), read-out: L (IC50 values)
[13] = α1C (L-type), 0.03 Hz, read-out: Estimated IC50 (μM) 0.03 Hz
[14] = α1C (L-type), 0.2 Hz, read-out: Estimated IC50 (μM) 0.2 Hz

IC50 [1, 6] [µM] | % Block (100 nM) 0.03 Hz ([1]; α1B (N-type)) [%] | % Block (100 nM) 0.2 Hz ([1]; α1B (N-type)) [%] | IC50 [1, 7] [µM] | IC50 [1, 8] [µM] | IC50 [2, 9] [µM] | % Block (100 nM) 0.03 Hz ([2]; α1A (P/Q-type), 0.03 Hz) [%] | % Block (100 nM) 0.2 Hz ([2]; α1A (P/Q-type), 0.2 Hz) [%] | IC50 [2, 10] [µM] | IC50 [2, 11] [µM] | IC50 [4, 12] [µM] | % Block (100 nM) 0.03 Hz ([4]; α1C (L-type), 0.03 Hz) [%] | % Block (100 nM) 0.2 Hz ([4]; α1C (L-type), 0.2 Hz) [%] | IC50 [4, 13] [µM] | IC50 [4, 14] [µM] | SMILES | N-type channel inhibition at higher frequencies (in words) ([1]; 0.2 Hz) | IC50 values on P/Q-type channels compared with N-type (in words) [3] | IC50 values on L-type channels compared with N-type (in words) [5]
0.03 | 50 | 79 | 0.1 | 0.03 | 0.09 | 27 | 58 | 0.41 | 0.09 | 0.37 | 15 | 26 | 0.74 | 0.37 | COc1cc(CN2CCN(CCCCCC(c3ccc(F)cc3)c3ccc(F)cc3)CC2)cc(OC)c1OC [39-45-3] | most potent inhibitors at higher frequencies | higher than those exhibited with respect to N-type channels | higher than those exhibited with respect to N-type channels
0.06 | 38 | 63 | 0.17 | 0.06 | 0.07 | 28 | 62 | 0.3 | 0.07 | 0.3 | 7 | 15 | 1.17 | 0.3 | O=C(CCCCC(c1ccccc1)c1ccccc1)N1CCC(NCC2CCCCC2)CC1 [JM-G-10] | most potent inhibitors at higher frequencies | higher than those exhibited with respect to N-type channels | higher than those exhibited with respect to N-type channels
0.04 | 34 | 72 | 0.2 | 0.04 | 0.12 | 31 | 52 | 0.65 | 0.12 | 0.3 | 19 | 29 | 0.5 | 0.3 | O=C(CC(c1ccccc1)c1ccccc1)N1CCN(C(c2ccccc2)c2ccccc2)CC1 [39-1-B4] | most potent inhibitors at higher frequencies | higher than those exhibited with respect to N-type channels | higher than those exhibited with respect to N-type channels
0.05 | 47 | 73 | 0.12 | 0.05 | 0.08 | 31 | 56 | 0.35 | 0.08 | 0.39 | 14 | 24 | 0.63 | 0.39 | O=C(CCCCC(c1ccccc1)c1ccccc1)N1CCN(C/C=C/c2ccccc2)CC1 [MC-34D] | most potent inhibitors at higher frequencies | higher than those exhibited with respect to N-type channels | higher than those exhibited with respect to N-type channels
